Like-named read-outs stand apart in the source and are kept apart here. Numbered stars: 1 amine (or outer) side, 2 acyl side, 3 side chain; on linkers, the order of the positions; unused ones are H or OH. Bridge positions count the residues as written; N and C are the ends. Square brackets hold non-standard residues; d marks the D form. Peptide text beside a SMILES is read from it. * marks the point of attachment. PEG24 = NCCOCCOCCOCCOCCOCCOCCOCCOCCOCCOCCOCCOCCOCCOCCOCCOCCOCCOCCOCCOCCOCCOCCOCCOCCC(=O)O; C20 diacid = O=C(O)CCCCCCCCCCCCCCCCCCC(=O)*; γGlu = O=C(O)[C@H](CCC(=O)[*:2])N[*:1]; 4Pal = N[C@@H](Cc1ccncc1)C(=O)O; Dap = NC[C@H](N)C(=O)O; CH2 = C([*:1])[*:2]; βAla = NCCC(=O)O
Target: T1, rat NPRA (Rattus norvegicus, UniProt P18910)
T1 construct: Full-Length cDNA Cloning and Generation of Cell Lines Overexpressing Natriuretic Peptide Receptors (NPRs); expressed in transfected cells; host or cells: Jump-in T-Rex HEK293 cells, pJTI R4 CMV-TO MCS pA vector, tetracycline induction
T1 sequence (P18910 29-1057): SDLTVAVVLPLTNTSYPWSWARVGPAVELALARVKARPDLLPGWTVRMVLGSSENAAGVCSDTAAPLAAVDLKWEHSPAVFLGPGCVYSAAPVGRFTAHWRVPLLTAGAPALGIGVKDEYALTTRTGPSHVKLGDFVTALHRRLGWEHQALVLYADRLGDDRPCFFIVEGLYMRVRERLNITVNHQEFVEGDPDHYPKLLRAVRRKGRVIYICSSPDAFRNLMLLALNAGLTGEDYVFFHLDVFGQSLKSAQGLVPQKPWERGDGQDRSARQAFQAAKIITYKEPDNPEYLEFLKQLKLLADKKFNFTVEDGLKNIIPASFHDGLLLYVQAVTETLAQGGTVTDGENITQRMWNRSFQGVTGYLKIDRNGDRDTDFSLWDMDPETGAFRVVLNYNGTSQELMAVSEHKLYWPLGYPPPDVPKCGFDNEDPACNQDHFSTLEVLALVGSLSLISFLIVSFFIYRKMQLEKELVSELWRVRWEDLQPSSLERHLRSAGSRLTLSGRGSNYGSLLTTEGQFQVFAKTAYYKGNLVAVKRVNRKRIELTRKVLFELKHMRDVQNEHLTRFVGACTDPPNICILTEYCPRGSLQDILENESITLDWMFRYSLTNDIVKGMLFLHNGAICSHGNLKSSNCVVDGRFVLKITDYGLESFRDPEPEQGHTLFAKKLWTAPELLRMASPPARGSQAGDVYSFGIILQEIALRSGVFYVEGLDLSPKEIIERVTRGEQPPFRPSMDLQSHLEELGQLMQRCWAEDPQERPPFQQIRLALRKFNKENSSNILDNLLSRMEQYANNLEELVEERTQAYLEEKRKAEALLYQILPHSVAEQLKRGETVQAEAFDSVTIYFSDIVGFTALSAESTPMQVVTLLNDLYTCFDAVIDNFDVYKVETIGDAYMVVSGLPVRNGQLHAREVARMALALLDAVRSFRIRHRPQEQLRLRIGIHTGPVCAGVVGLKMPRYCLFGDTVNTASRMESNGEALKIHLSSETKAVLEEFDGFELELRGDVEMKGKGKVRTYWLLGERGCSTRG
Experiment: Rat NPRA cGMP activity assay (HTRF) in HEK293 cells overexpressing NPRA
Type: cell-based
How it was run: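 cGMP measured by HTRF and scaled between buffer (minimum) and 100 nM amidated rat ANP (maximum). Polypeptides in 10-fold steps from 10 μM to 1 pM, 0.5% DMSO, 0.5 mM IBMX, 40 min at room temperature, on induced NPRA-overexpressing HEK293 cells.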

[1] = assay buffer with 0.1% BSA, read-out: cGMP Assay (EC50, pM) w/BSA rNPRA
[2] = assay buffer with 0.1% casein, read-out: cGMP Assay (EC50, pM) w/Casein rNPRA
[3] = cGMP Assay (EC50, pM) w/BSA rNPRA, assay buffer with 0.1% BSA
[4] = cGMP Assay (EC50, pM) w/Casein rNPRA, assay buffer with 0.1% casein

Compound | EC50 [1] | EC50 [2] | EC50 [3] | EC50 [4]
CC[C@H](C)[C@@H]1NC(=O)[C@H](CCCNC(=N)N)NC(=O)[C@H](CC(=O)O)NC(=O)[C@H]([C@@H](C)CC)NC(=O)[C@H](CCCNC(=N)N)NC(=O)[C@H](CCCCN)NC(=O)CNC(=O)[C@H](Cc2ccccc2)NC(=O)[C@@H](NC(=O)[C@H](CO)NC(=O)[C@H](CO)NC(=O)[C@H](CCCNC(=N)N)NC(=O)CCNC(=O)[C@H](CCCCN)NC(=O)[C@H](CCC(=O)O)NC(=O)CCOCCOCCOCCOCCOCCOCCOCCOCCOCCOCCOCCOCCOCCOCCOCCOCCOCCOCCOCCOCCOCCOCCOCCOCCNC(=O)CNC(=O)[C@H](CCCCN)NC(=O)[C@H](CCC(=O)O)NC(=O)[C@H](CCCCN)NC(=O)[C@H](CCC(=O)O)NC(=O)[C@H](CCCCN)NC(=O)[C@H](CCC(=O)O)NC(=O)CC[C@H](NC(=O)CCCCCCCCCCCCCCCCCCC(=O)O)C(=O)O)CSCSC[C@@H](C(=O)N2CCC[C@H]2C(=O)N[C@@H](CO)C(=O)N[C@@H](Cc2ccccc2)C(=O)N[C@@H](CCCNC(=N)N)C(=O)N[C@@H](Cc2c[nH]cn2)C(=O)NCC(=O)NCC(=O)N2CCC[C@H]2C(N)=O)NC(=O)CNC(=O)[C@H](CC(C)C)NC(=O)CNC(=O)[C@H](CO)NC(=O)[C@H](CCC(N)=O)NC(=O)[C@H](Cc2c[nH]cn2)NC(=O)CNC1=O [Example 130] ({C20 diacid-γGlu}-EKEKEKG[PEG24]EK[βAla]RSSCFGKRIDRIGHQSGLGCPSFRHGGP-NH2; linker 15-31 via CH2) | 197000 pM | 9170 pM | – | –
CC[C@H](C)[C@@H]1NC(=O)[C@H](CCCNC(=N)N)NC(=O)[C@H](CC(=O)O)NC(=O)[C@H]([C@@H](C)CC)NC(=O)[C@H](CCCNC(=N)N)NC(=O)CNC(=O)CNC(=O)[C@H](Cc2ccccc2)NC(=O)[C@@H](NC(=O)[C@H](CO)NC(=O)[C@H](CO)NC(=O)[C@H](CCCNC(=N)N)NC(=O)[C@H](CCCNC(=N)N)NC(=O)[C@H](Cc2ccncc2)NC(=O)[C@H](CO)NC(=O)COCCOCCNC(=O)COCCOCCNC(=O)COCCOCCNC(=O)COCCOCCNC(=O)COCCOCCNC(=O)COCCOCCNC(=O)CNC(=O)[C@H](CCCCN)NC(=O)[C@H](CCC(=O)O)NC(=O)[C@H](CCCCN)NC(=O)[C@H](CCC(=O)O)NC(=O)[C@H](CCCCN)NC(=O)[C@H](CCC(=O)O)NC(=O)CC[C@H](NC(=O)CCCCCCCCCCCCCCCCCCC(=O)O)C(=O)O)CSCSC[C@@H](C(=O)N2CCC[C@H]2C(=O)N[C@@H](CO)C(=O)N[C@@H](Cc2ccccc2)C(=O)N[C@@H](CCCNC(=N)N)C(=O)N[C@@H](Cc2c[nH]cn2)C(=O)NCC(=O)NCC(=O)N[C@@H](CCCCN)C(=O)N[C@@H](CO)C(=O)N[C@@H](CO)C(=O)NCC(=O)N[C@@H](C)C(=O)N2CCC[C@H]2C(=O)N2CCC[C@H]2C(=O)N2CCC[C@H]2C(=O)N[C@@H](CO)C(N)=O)NC(=O)CNC(=O)[C@H](CC(C)C)NC(=O)CNC(=O)[C@H](CO)NC(=O)[C@H](CCC(N)=O)NC(=O)[C@H](Cc2c[nH]cn2)NC(=O)CNC1=O [Example 86] | – | 17900 pM | – | –
{C20 diacid-γGlu}-EKEKEKG[PEG24]S[4Pal]RRSSCFGGRIDRIGHQSGLGCPSFRHGGPSSGAPPPS-NH2 (linker 15-31 via CH2) [Example 61] | – | – | 463000 pM | –
CC[C@H](C)[C@@H]1NC(=O)[C@H](CCCNC(=N)N)NC(=O)[C@H](CC(=O)O)NC(=O)[C@H]([C@@H](C)CC)NC(=O)[C@H](CCCNC(=N)N)NC(=O)[C@H](CCCCN)NC(=O)CNC(=O)[C@H](Cc2ccccc2)NC(=O)[C@@H](NC(=O)[C@H](CO)NC(=O)[C@H](CO)NC(=O)[C@H](CCCNC(=N)N)NC(=O)CCNC(=O)[C@H](CCCCN)NC(=O)[C@H](CCC(=O)O)NC(=O)COCCOCCNC(=O)COCCOCCNC(=O)COCCOCCNC(=O)COCCOCCNC(=O)COCCOCCNC(=O)COCCOCCNC(=O)CNC(=O)[C@H](CCCCN)NC(=O)[C@H](CCC(=O)O)NC(=O)[C@H](CCCCN)NC(=O)[C@H](CCC(=O)O)NC(=O)[C@H](CCCCN)NC(=O)[C@H](CCC(=O)O)NC(=O)CC[C@H](NC(=O)CCCCCCCCCCCCCCCCCCC(=O)O)C(=O)O)CSCSC[C@@H](C(=O)N2CCC[C@H]2C(=O)N[C@@H](CO)C(=O)N[C@@H](Cc2ccccc2)C(=O)N[C@@H](CCCNC(=N)N)C(=O)N[C@@H](Cc2c[nH]cn2)C(=O)NCC(=O)NCC(=O)N[C@@H](CCCCN)C(=O)N[C@@H](CO)C(=O)N[C@@H](CO)C(=O)NCC(=O)N[C@@H](C)C(=O)N2CCC[C@H]2C(=O)N2CCC[C@H]2C(=O)N2CCC[C@H]2C(=O)N[C@@H](CO)C(N)=O)NC(=O)CNC(=O)[C@H](CC(C)C)NC(=O)CNC(=O)[C@H](CO)NC(=O)[C@H](CCC(N)=O)NC(=O)[C@H](Cc2c[nH]cn2)NC(=O)CNC1=O [Example 89] | – | 13800 pM | – | –
CC[C@H](C)[C@@H]1NC(=O)[C@H](CCCNC(=N)N)NC(=O)[C@H](CC(=O)O)NC(=O)[C@H]([C@@H](C)CC)NC(=O)[C@H](CCCNC(=N)N)NC(=O)CNC(=O)CNC(=O)[C@H](Cc2ccccc2)NC(=O)[C@@H](NC(=O)[C@H](CO)NC(=O)[C@H](CO)NC(=O)[C@H](CCCNC(=N)N)NC(=O)CCNC(=O)[C@H](CCC(=O)O)NC(=O)[C@H](CCCCN)NC(=O)CNC(=O)[C@H](CCCCN)NC(=O)[C@H](CCC(=O)O)NC(=O)[C@H](CCCCN)NC(=O)[C@H](CCC(=O)O)NC(=O)[C@H](CCCCN)NC(=O)[C@H](CCC(=O)O)NC(=O)CC[C@H](NC(=O)CCCCCCCCCCCCCCCCCCC(=O)O)C(=O)O)CSCSC[C@@H](C(=O)N2CCC[C@H]2C(=O)N[C@@H](CO)C(=O)N[C@@H](Cc2ccccc2)C(=O)N[C@@H](CCCNC(=N)N)C(=O)N[C@@H](Cc2c[nH]cn2)C(=O)NCC(=O)NCC(=O)N2CCC[C@H]2C(=O)N[C@@H](CO)C(=O)N[C@@H](CO)C(=O)NCC(=O)N[C@@H](C)C(=O)N2CCC[C@H]2C(=O)N2CCC[C@H]2C(=O)N2CCC[C@H]2C(=O)N[C@@H](CO)C(N)=O)NC(=O)CNC(=O)[C@H](CC(C)C)NC(=O)CNC(=O)[C@H](CO)NC(=O)[C@H](Cc2ccc(O)cc2)NC(=O)[C@H](Cc2c[nH]cn2)NC(=O)CNC1=O [Example 58] | – | – | 1.38e+06 pM | –
{C20 diacid-γGlu}-EKEKEKGEKPRSSCFG[Dap]RIDRIGHQSGLGCPSFRHGSPSSGAPPPS-NH2 (linker 14-30 via CH2) [Example 137] | 2.19e+06 pM | 76900 pM | – | –
{C20 diacid-γGlu}-EKEKEKGS[4Pal]RRSSCFGGRIGRIGHQSGLGCPSFRHGGPSSGAPPPS-NH2 (disulfide 14-30) [Example 29] | – | – | – | 16800 pM
CC[C@H](C)[C@@H]1NC(=O)[C@H](CCCNC(=N)N)NC(=O)[C@H](CC(=O)O)NC(=O)[C@H]([C@@H](C)CC)NC(=O)[C@H](CCCNC(=N)N)NC(=O)CNC(=O)CNC(=O)[C@H](Cc2ccccc2)NC(=O)[C@@H](NC(=O)[C@H](CO)NC(=O)[C@H](CO)NC(=O)[C@H](CCCNC(=N)N)NC(=O)CCNC(=O)[C@H](CCCCN)NC(=O)[C@H](CCC(=O)O)NC(=O)CNC(=O)[C@H](CCCCN)NC(=O)[C@H](CCC(=O)O)NC(=O)[C@H](CCCCN)NC(=O)[C@H](CCC(=O)O)NC(=O)[C@H](CCCCN)NC(=O)[C@H](CCC(=O)O)NC(=O)CC[C@H](NC(=O)CCCCCCCCCCCCCCCCCCC(=O)O)C(=O)O)CSCSC[C@@H](C(=O)N2CCC[C@H]2C(=O)N[C@@H](CO)C(=O)N[C@@H](Cc2ccccc2)C(=O)N[C@@H](CCCNC(=N)N)C(=O)N[C@@H](Cc2c[nH]cn2)C(=O)NCC(=O)NCC(=O)N2CCC[C@H]2C(=O)N[C@@H](CO)C(=O)N[C@@H](CO)C(=O)NCC(=O)N[C@@H](C)C(=O)N2CCC[C@H]2C(=O)N2CCC[C@H]2C(=O)N2CCC[C@H]2C(=O)N[C@@H](CO)C(N)=O)NC(=O)CNC(=O)[C@H](CC(C)C)NC(=O)CNC(=O)[C@H](CO)NC(=O)[C@H](Cc2ccc(O)cc2)NC(=O)[C@H](Cc2c[nH]cn2)NC(=O)CNC1=O [Example 56] | – | – | 1.38e+06 pM | 11200 pM
{C20 diacid-γGlu}-EKEKEKGEKPRSSCFG[Dap]RIDRIGHYSGLGCPSFRHGSPSSGAPPPS-NH2 (linker 14-30 via CH2) [Example 136] | 2.43e+06 pM | 32900 pM | – | –

Reference: patent publication US20240174727A1, “LONG-ACTING NATRIURETIC PEPTIDES AND USES THEREOF” (Eli Lilly and Company, priority 2022, published 2024)
